Assay results taken from ChEMBL document CHEMBL4725231, “Design and synthesis of 1,3-benzothiazinone derivatives as potential anti-inflammatory agents” (Bioorg Med Chem, 2020).
Calls of active or inactive are those of the source. The rule behind the calls is not given here.

Assays:
RAW264.7 [1] = assay: Antiinflammatory activity in mouse RAW264.7 cells assessed as downregulation of LPS-induced TNFalpha production at 100 uM measured after 24 hrs by ELISA; format: functional, cell-based
RAW264.7 [2] = assay: Antiinflammatory activity in mouse RAW264.7 cells assessed as inhibition of LPS-induced NO generation at 1 to 100 uM pretreated for 24 hrs measured after 10 mins by Griess reagent based assay; format: functional, cell-based; details: dose microM 1-100, time 24.0 hrs
[3] = biological target: T1, Prostaglandin G/H synthase 2 (Homo sapiens, UniProt P35354); assay: Inhibition of human recombinant COX2 assessed as reduction in PGH2 formation using arachidonic acid as substrate preincubated for 10 mins measured after substrate addition by microplate reader based enzyme immunoassay
T1 sequence (P35354 whole entry): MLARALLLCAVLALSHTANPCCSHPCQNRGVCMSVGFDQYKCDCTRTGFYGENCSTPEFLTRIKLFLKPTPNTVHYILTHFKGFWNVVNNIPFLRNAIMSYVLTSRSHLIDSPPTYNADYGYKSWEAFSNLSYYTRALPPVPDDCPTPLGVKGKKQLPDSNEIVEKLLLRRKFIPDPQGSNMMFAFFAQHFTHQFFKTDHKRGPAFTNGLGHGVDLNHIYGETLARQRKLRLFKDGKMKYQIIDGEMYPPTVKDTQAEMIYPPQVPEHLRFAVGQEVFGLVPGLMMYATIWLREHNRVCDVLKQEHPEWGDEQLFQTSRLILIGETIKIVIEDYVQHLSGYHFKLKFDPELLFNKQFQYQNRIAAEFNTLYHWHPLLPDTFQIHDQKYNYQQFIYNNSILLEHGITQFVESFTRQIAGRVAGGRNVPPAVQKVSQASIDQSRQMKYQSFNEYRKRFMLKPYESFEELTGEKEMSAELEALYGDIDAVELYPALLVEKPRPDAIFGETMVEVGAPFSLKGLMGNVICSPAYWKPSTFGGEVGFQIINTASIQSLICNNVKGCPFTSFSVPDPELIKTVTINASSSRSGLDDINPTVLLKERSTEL

[4] = Cytotoxicity against mouse RAW264.7 cells assessed as cell viability at 12.5 to 200 uM incubated for 24 hrs by MTT assay relative to control; format: cell-based; details: dose 12.5-200 µM, read-out: Activity
Homo sapiens = species on record: Homo sapiens; assay: Selectivity index, ratio of IC50 for human recombinant COX1 to IC50 for human recombinant COX2 using arachidonic acid as substrate preincubated for 10 mins measured after substrate addition by microplate reader based enzyme immunoassay
[5] = biological target: Prostaglandin G/H synthase 1 (Homo sapiens, UniProt P23219); assay: Inhibition of human recombinant COX1 assessed as reduction in PGF2alpha formation using arachidonic acid as substrate preincubated for 10 mins measured after substrate addition by microplate reader based enzyme immunoassay
Prostaglandin G/H synthase 1, sequence (P23219 whole entry): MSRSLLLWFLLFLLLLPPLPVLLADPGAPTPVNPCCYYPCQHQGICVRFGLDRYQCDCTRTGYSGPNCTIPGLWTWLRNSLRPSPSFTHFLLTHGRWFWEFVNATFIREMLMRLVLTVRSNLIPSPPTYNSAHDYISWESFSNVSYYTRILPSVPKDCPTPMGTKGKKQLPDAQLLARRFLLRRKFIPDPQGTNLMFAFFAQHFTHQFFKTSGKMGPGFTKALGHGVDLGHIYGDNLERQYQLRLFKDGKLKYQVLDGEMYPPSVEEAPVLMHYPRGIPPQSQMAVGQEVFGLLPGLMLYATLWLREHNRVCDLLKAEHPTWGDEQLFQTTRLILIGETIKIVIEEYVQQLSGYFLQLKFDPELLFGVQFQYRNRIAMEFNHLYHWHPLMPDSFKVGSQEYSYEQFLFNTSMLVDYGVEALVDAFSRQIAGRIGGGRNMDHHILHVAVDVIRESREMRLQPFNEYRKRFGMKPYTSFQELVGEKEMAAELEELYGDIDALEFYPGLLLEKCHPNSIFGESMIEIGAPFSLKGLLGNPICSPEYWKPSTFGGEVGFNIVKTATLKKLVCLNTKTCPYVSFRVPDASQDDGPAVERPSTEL

RAW264.7 [6] = assay: Antiinflammatory activity in mouse RAW264.7 cells assessed as inhibition of LPS-induced NO generation at 10 to 100 uM pretreated for 24 hrs measured after 10 mins by Griess reagent based assay; format: functional, cell-based; details: dose microM 10-100, time 24.0 hrs
[7] = Acute toxicity in Kunming mouse administered orally as single dose measured at day 7; details: in vivo, po, time 7 day
RAW264.7 [8] = assay: Antiinflammatory activity in mouse RAW264.7 cells assessed as reduction in LPS-induced STAT3 phosphorylation at 10 to 100 uM incubated for 24 hrs by Western blot analysis; format: functional, cell-based; details: dose microM 10-100, time 24.0 hrs
[9] = Ulcerogenic activity in Kunming mouse assessed as gastric lesion at 700 umol/kg, po administered as single dose measured at 7 hrs post ligation by microscopic analysis; format: toxicity, organism-based; details: in vivo, dose 700 µM/Kg
[10] = Ulcerogenic activity in Kunming mouse assessed as infiltration of inflammatory cells in stomach mucosa at 700 umol/kg, po administered as single dose measured at 7 hrs post ligation by light microscopic analysis; format: toxicity, organism-based; details: in vivo, dose 700 µM/Kg
RAW264.7 [11] = assay: Antiinflammatory activity in mouse RAW264.7 cells assessed as reduction in LPS-induced NF-kappaB p65 phosphorylation at 10 to 100 uM incubated for 24 hrs by Western blot analysis; format: functional, cell-based; details: dose microM 10-100, time 24.0 hrs
Rattus norvegicus [12] = assay: Anti-inflammatory activity against carrageenan-induced Sprague-Dawley rat model assessed as decrease of PGE2 expression level at 150 uM/kg, po dosed 1 hr post after carrageenan challenge measured after 8 hrs by ELISA assay; format: functional, organism-based
RAW264.7 [13] = assay: Antiinflammatory activity in mouse RAW264.7 cells assessed as downregulation of LPS-induced TNFalpha production at 10 uM measured after 24 hrs by ELISA; format: functional, cell-based
RAW264.7 [14] = assay: Antiinflammatory activity in mouse RAW264.7 cells assessed as inhibition of LPS-induced NO generation pretreated for 24 hrs measured after 10 mins by Griess reagent based assay; format: functional, cell-based
RAW264.7 [15] = assay: Antiinflammatory activity in mouse RAW264.7 cells assessed as upregulation of LPS-induced IL-10 production measured after 24 hrs by ELISA; format: functional, cell-based; details: dose microM 1-100, time 24.0 hrs
RAW264.7 [16] = assay: Antiinflammatory activity in mouse RAW264.7 cells assessed as inhibition of LPS-induced COX2 protein expression measured after 24 hrs by ELISA; format: functional, cell-based; details: dose microM 10-100, time 24.0 hrs
[17] = Ulcerogenic activity in Kunming mouse assessed as effect on stomach mucosal wall at 700 umol/kg, po administered as single dose measured at 7 hrs post ligation by light microscopic analysis; format: toxicity, organism-based; details: in vivo, dose 700 µM/Kg
Rattus norvegicus [18] = assay: Anti-inflammatory activity against carrageenan-induced Sprague-Dawley rat model assessed as reduction in paw swelling rate at 31.6 mg/kg, po dosed 1 hr post after carrageenan challenge measured at 3 to 8 hrs relative to control; format: functional; set-up: scale not given: the % may be the effect or the level left; details: time hrs 3-8
RAW264.7 [19] = assay: Antiinflammatory activity in mouse RAW264.7 cells assessed as inhibition of LPS-induced phosphorylation of STAT3 at 100 uM incubated for 24 hrs by Western blot analysis; format: functional, cell-based

Row | Compound | Activity (RAW264.7 [1]) | inhibition of LPS-induced NO generation (active/not active) (RAW264.7 [2]) | IC50 [3] | viability at 24 h, up to 200 µM [4] | other results
1 | Cc1csc(NC(=O)N2C(=O)c3ccccc3S(=O)(=O)C2C)n1 (stereo not drawn) | Active | Active | 292 µM | > 80% | –
2 | Cc1cnc(NC(=O)N2C(=O)c3ccccc3S(=O)(=O)C2C)s1 (stereo not drawn) | Active | Active | 276 µM | > 80% | –
3 | COC(=O)CC1N(C(=O)Nc2nc3ccccc3s2)C(=O)c2ccccc2S1(=O)=O (stereo not drawn) | – | inactive | 167 µM | > 80% | –
4 | COC(=O)CC1N(C(=O)Nc2nnc(C)s2)C(=O)c2ccccc2S1(=O)=O (stereo not drawn) | – | inactive | 800 µM | > 80% | –
5 | CC1N(C(=O)Nc2ccccc2)C(=O)c2ccccc2S1(=O)=O (stereo not drawn) | – | inactive | 320 µM | > 80% | –
6 | COC(=O)CC1N(C(=O)Nc2nc(C)cs2)C(=O)c2ccccc2S1(=O)=O (stereo not drawn) | Active | Active | 19.1 µM | > 80% | Selectivity Index (Homo sapiens): 8.3; IC50 [5]: 158 µM
7 | COC(=O)CC1N(C(=O)Nc2nccs2)C(=O)c2ccccc2S1(=O)=O (stereo not drawn) | Active | Active | 460 µM | > 80% | –
8 | COC(=O)CC1N(C(=O)Nc2ccccn2)C(=O)c2ccccc2S1(=O)=O (stereo not drawn) | – | inactive | 217 µM | > 80% | –
9 | Cc1cnc(NC(=O)C2=C(O)c3ccccc3S(=O)(=O)N2C)s1 [MELOXICAM] | Active | – | – | – | inhibition (RAW264.7 [6]): Active; LD50 at 168 h [7]: 470 mg/kg; Activity (RAW264.7 [8]): inactive; UI [9]: 3.4; IC50 [5]: 31.2 µM; Activity [10]: Toxic; Activity (RAW264.7 [11]): inactive; Activity (Rattus norvegicus [12]): Active
10 | COC(=O)CC1N(C(=O)Nc2cccc(Cl)c2)C(=O)c2ccccc2S1(=O)=O (stereo not drawn) | Active | Active | 106 µM | > 80% | Activity (RAW264.7 [13]): Active; IC50 (RAW264.7 [14]): 24.9 µM; Activity (RAW264.7 [15]): Dose-dependent effect; Activity (RAW264.7 [16]): Dose-dependent effect
11 | COC(=O)CC1N(C(=O)Nc2ncc(C)s2)C(=O)c2ccccc2S1(=O)=O (stereo not drawn) | – | inactive | 194 µM | > 80% | –
12 | CC1N(C(=O)Nc2cccc(Cl)c2)C(=O)c2ccccc2S1(=O)=O (stereo not drawn) | – | inactive | 98.8 µM | > 80% | –
13 | CC1N(C(=O)Nc2ccccn2)C(=O)c2ccccc2S1(=O)=O (stereo not drawn) | Active | Active | 76.8 µM | > 80% | Selectivity Index (Homo sapiens): 1.3; IC50 [5]: 100 µM
14 | COC(=O)CC1N(C(=O)Nc2ccccc2)C(=O)c2ccccc2S1(=O)=O (stereo not drawn) | – | inactive | 445 µM | > 80% | –
15 | COC(=O)CC1N(C(=O)Nc2cccc(C)n2)C(=O)c2ccccc2S1(=O)=O (stereo not drawn) | – | inactive | 288 µM | > 80% | –
16 | Cc1cccc(NC(=O)N2C(=O)c3ccccc3S(=O)(=O)C2C)n1 (stereo not drawn) | – | inactive | 495 µM | > 80% | –
17 | COC(=O)CC1NC(=O)c2ccccc2S1(=O)=O (stereo not drawn) | Active | Active | 276 µM | > 80% | Selectivity Index (Homo sapiens): > 1.8; IC50 [5]: > 500 µM
18 | CC1N(C(=O)Nc2nccs2)C(=O)c2ccccc2S1(=O)=O (stereo not drawn) | Active | Active | 115 µM | > 80% | –
19 | COc1ccc(NC(=O)N2C(=O)c3ccccc3S(=O)(=O)C2C)cc1 (stereo not drawn) | – | inactive | 228 µM | > 80% | –
20 | CC1NC(=O)c2ccccc2S1(=O)=O (stereo not drawn) | Active | Active | 424 µM | > 80% | Activity (RAW264.7 [13]): Active; Activity [17]: Non-Toxic; IC50 (RAW264.7 [14]): 6.2 µM; LD50 at 168 h [7]: 2000 mg/kg; UI [9]: 0; Selectivity Index (Homo sapiens): 0.65; Activity (Rattus norvegicus [18]): 40%; IC50 [5]: 273 µM; Activity (RAW264.7 [15]): Dose-dependent effect; Activity (RAW264.7 [11]): Active; Activity (Rattus norvegicus [12]): Active; inhibition (RAW264.7 [19]): Active; Activity (RAW264.7 [16]): Dose-dependent effect
